Data reported in patent US11753446B2, “Beta-hairpin peptidomimetics” (POLYPHOR AG, priority 2014, dated 2023).
Where a SMILES comes first, the peptide text is derived from it. Bridges are numbered along the chain shown (N, C = ends). [ ]: non-standard residue; d: D form. Ala(cPent) = N[C@@H](CC1CCCC1)C(=O)O; Gly(cPent) = N[C@H](C(=O)O)C1CCCC1; dDab = NCC[C@@H](N)C(=O)O; Orn = NCCC[C@H](N)C(=O)O; Dab = NCC[C@H](N)C(=O)O

How the values were obtained:
[1] = test system: Acinetobacter baumannii DSM 30008; format: cell-based; conditions: DSM 30008
How it was run: (§1)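 Peptide MICs were determined by NCCLS broth microdilution in cation-adjusted Mueller-Hinton II broth. Inoculum was about 10^6 CFU/mL, matched to 0.5 McFarland, with peptides in two-fold serial dilutions. The broth contained Polysorbate 80 at 0.002% final concentration.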

[2] = test system: Escherichia coli ATCC 25922; format: cell-based; conditions: ATCC 25922
How it was run: as §1

[3] = test system: Klebsiella pneumoniae ATCC 13883; format: cell-based; conditions: ATCC 13883
How it was run: as §1

[4] = test system: human red blood cells (hRBC); experiment: Hemolysis: hemolytic activity at 100 μg/mL, 1 h at 37° C.; conditions: red cells of human, 1 h, 100
How it was run: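 Peptides at 100 μg/mL incubated with washed 20% (v/v) human erythrocytes (~0.9×10^9 cells/mL) for 1 h at 37 °C with shaking. Released hemoglobin read at OD 540 nm in supernatant; 0% and 100% lysis from PBS/0.001% acetic acid and 2.5% Triton X-100.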

SMILES	Acinetobacter baumannii DSM 30008 MIC [1] [mg/L]	Escherichia coli ATCC 25922 MIC [2] [mg/L]	Klebsiella pneumoniae ATCC 13883 MIC [3] [mg/L]	Hemolysis at 100 μg/mL [4] [%]
CC(C)C[C@@H]1NC(=O)[C@H](CCN)NC(=O)[C@@H](CCN)NC(=O)[C@H](C(C)C)NC(=O)[C@@H]2CSSC[C@H](NC1=O)C(=O)N[C@@H](Cc1ccc(O)cc1)C(=O)N[C@@H](CC(N)=O)C(=O)N[C@@H](CCCN)C(=O)N[C@H](CCN)C(=O)N[C@@H](CCN)C(=O)N[C@@H](Cc1c[nH]c3ccccc13)C(=O)N[C@@H](CC(N)=O)C(=O)N[C@@H](Cc1ccc(O)cc1)C(=O)N2 [Example 54, cyclo(-Leu-Cys-Tyr-Asn-Orn-^DDab-Dab-Trp-Asn-Tyr-Cys-Val-^DDab-Dab-)] (HELM PEPTIDE1{C.V.[NCC[C@@H](N[*:1])C(=O)[*:2]].[Dab].L.C.Y.N.[Orn].[NCC[C@@H](N[*:1])C(=O)[*:2]].[Dab].W.N.Y}$PEPTIDE1,PEPTIDE1,1:R3-6:R3|PEPTIDE1,PEPTIDE1,1:R1-14:R2$$$V2.0)	1.25	0.75	1	3
CC(C)C[C@@H]1NC(=O)[C@H](CCCNC(=N)N)NC(=O)[C@@H](CCN)NC(=O)[C@H](C(C)C)NC(=O)[C@@H]2CSSC[C@H](NC1=O)C(=O)N[C@@H](Cc1ccc(O)cc1)C(=O)N[C@@H](CC(N)=O)C(=O)N[C@@H](CCCN)C(=O)N[C@@H](CCN)C(=O)N[C@@H](CCN)C(=O)N[C@@H](Cc1c[nH]c3ccccc13)C(=O)N[C@@H](CO)C(=O)N[C@@H](Cc1ccc(O)cc1)C(=O)N2 [Example 55, cyclo(-Leu-Cys-Tyr-Asn-Orn-Dab-Dab-Trp-Ser-Tyr-Cys-Val-^DDab-Arg-)] (HELM PEPTIDE1{C.V.[NCC[C@@H](N[*:1])C(=O)[*:2]].R.L.C.Y.N.[Orn].[Dab].[Dab].W.S.Y}$PEPTIDE1,PEPTIDE1,1:R3-6:R3|PEPTIDE1,PEPTIDE1,1:R1-14:R2$$$V2.0)	1.25	1	1	0
CC(C)C[C@@H]1NC(=O)[C@H](CCCNC(=N)N)NC(=O)[C@@H](CCN)NC(=O)[C@H](C(C)C)NC(=O)[C@@H]2CSSC[C@H](NC1=O)C(=O)N[C@@H](Cc1ccc(O)cc1)C(=O)N[C@@H](CC(N)=O)C(=O)N[C@@H](CCN)C(=O)N[C@H](CCN)C(=O)N[C@@H](CCN)C(=O)N[C@@H](Cc1c[nH]c3ccccc13)C(=O)N[C@@H](CO)C(=O)N[C@@H](Cc1ccc(O)cc1)C(=O)N2 [Example 56, cyclo(-Leu-Cys-Tyr-Asn-Dab-^DDab-Dab-Trp-Ser-Tyr-Cys-Val-^DDab-Arg-)] (HELM PEPTIDE1{C.V.[NCC[C@@H](N[*:1])C(=O)[*:2]].R.L.C.Y.N.[Dab].[NCC[C@@H](N[*:1])C(=O)[*:2]].[Dab].W.S.Y}$PEPTIDE1,PEPTIDE1,1:R3-6:R3|PEPTIDE1,PEPTIDE1,1:R1-14:R2$$$V2.0)	0.625	1	1	1
CC(C)[C@@H]1NC(=O)[C@H](CCCNC(=N)N)NC(=O)[C@@H](CCN)NC(=O)[C@H](C(C)C)NC(=O)[C@@H]2CSSC[C@H](NC1=O)C(=O)N[C@@H](Cc1ccc(O)cc1)C(=O)N[C@@H](CC(N)=O)C(=O)N[C@@H](CCCN)C(=O)N[C@H](CCN)C(=O)N[C@@H](CCN)C(=O)N[C@@H](Cc1c[nH]c3ccccc13)C(=O)N[C@@H](CO)C(=O)N[C@@H](Cc1ccc(O)cc1)C(=O)N2 [Example 57, cyclo(-Val-Cys-Tyr-Asn-Orn-^DDab-Dab-Trp-Ser-Tyr-Cys-Val-^DDab-Arg-)] (HELM PEPTIDE1{C.V.[NCC[C@@H](N[*:1])C(=O)[*:2]].R.V.C.Y.N.[Orn].[NCC[C@@H](N[*:1])C(=O)[*:2]].[Dab].W.S.Y}$PEPTIDE1,PEPTIDE1,1:R3-6:R3|PEPTIDE1,PEPTIDE1,1:R1-14:R2$$$V2.0)	1.25	1	1.5	1
CC(C)[C@@H]1NC(=O)[C@@H]2CSSC[C@H](NC(=O)[C@H](CC3CCCC3)NC(=O)[C@H](CCCNC(=N)N)NC(=O)[C@@H](CCN)NC1=O)C(=O)N[C@@H](Cc1ccc(O)cc1)C(=O)N[C@@H](CC(N)=O)C(=O)N[C@@H](CCCN)C(=O)N[C@H](CCN)C(=O)N[C@@H](CCN)C(=O)N[C@@H](Cc1c[nH]c3ccccc13)C(=O)N[C@@H](CO)C(=O)N[C@@H](Cc1ccc(O)cc1)C(=O)N2 [Example 58, cyclo(-Cpa-Cys-Tyr-Asn-Orn-^DDab-Dab-Trp-Ser-Tyr-Cys-Val-^DDab-Arg-)] (cyclo([Ala(cPent)]CYN[Orn][dDab][Dab]WSYCV[dDab]R); disulfide 2-11)	0.625	0.5	0.75	3
CC(C)[C@@H]1NC(=O)[C@@H]2CSSC[C@H](NC(=O)[C@H](C3CCCC3)NC(=O)[C@H](CCCNC(=N)N)NC(=O)[C@@H](CCN)NC1=O)C(=O)N[C@@H](Cc1ccc(O)cc1)C(=O)N[C@@H](CC(N)=O)C(=O)N[C@@H](CCCN)C(=O)N[C@H](CCN)C(=O)N[C@@H](CCN)C(=O)N[C@@H](Cc1c[nH]c3ccccc13)C(=O)N[C@@H](CO)C(=O)N[C@@H](Cc1ccc(O)cc1)C(=O)N2 [Example 59, cyclo(-Cpg-Cys-Tyr-Asn-Orn-^DDab-Dab-Trp-Ser-Tyr-Cys-Val-^DDab-Arg-)] (cyclo(CV[dDab]R[Gly(cPent)]CYN[Orn][dDab][Dab]WSY); disulfide 1-6)	0.75	1	0.75	1
CCC[C@@H]1NC(=O)[C@H](CCCNC(=N)N)NC(=O)[C@@H](CCN)NC(=O)[C@H](C(C)C)NC(=O)[C@@H]2CSSC[C@H](NC1=O)C(=O)N[C@@H](Cc1ccc(O)cc1)C(=O)N[C@@H](CC(N)=O)C(=O)N[C@@H](CCCN)C(=O)N[C@H](CCN)C(=O)N[C@@H](CCN)C(=O)N[C@@H](Cc1c[nH]c3ccccc13)C(=O)N[C@@H](CO)C(=O)N[C@@H](Cc1ccc(O)cc1)C(=O)N2 [Example 60, cyclo(-Nva-Cys-Tyr-Asn-Orn-^DDab-Dab-Trp-Ser-Tyr-Cys-Val-^DDab-Arg-)] (HELM PEPTIDE1{C.V.[NCC[C@@H](N[*:1])C(=O)[*:2]].R.[Nva].C.Y.N.[Orn].[NCC[C@@H](N[*:1])C(=O)[*:2]].[Dab].W.S.Y}$PEPTIDE1,PEPTIDE1,1:R3-6:R3|PEPTIDE1,PEPTIDE1,1:R1-14:R2$$$V2.0)	0.75	1	1	1
CC[C@@H]1NC(=O)[C@H](CCCNC(=N)N)NC(=O)[C@@H](CCN)NC(=O)[C@H](C(C)C)NC(=O)[C@@H]2CSSC[C@H](NC1=O)C(=O)N[C@@H](Cc1ccc(O)cc1)C(=O)N[C@@H](CC(N)=O)C(=O)N[C@@H](CCCN)C(=O)N[C@H](CCN)C(=O)N[C@@H](CCN)C(=O)N[C@@H](Cc1c[nH]c3ccccc13)C(=O)N[C@@H](CO)C(=O)N[C@@H](Cc1ccc(O)cc1)C(=O)N2 [Example 61, cyclo(-Abu-Cys-Tyr-Asn-Orn-^DDab-Dab-Trp-Ser-Tyr-Cys-Val-^DDab-Arg-)] (HELM PEPTIDE1{[Abu].C.Y.N.[Orn].[NCC[C@@H](N[*:1])C(=O)[*:2]].[Dab].W.S.Y.C.V.[NCC[C@@H](N[*:1])C(=O)[*:2]].R}$PEPTIDE1,PEPTIDE1,2:R3-11:R3|PEPTIDE1,PEPTIDE1,1:R1-14:R2$$$V2.0)	1.5	2	2	1
